# Measurements from patent US20040103451A1, “Abscisic acid 8'-and 7'-hydroxylase genes and related sequences from plants” (priority 2003, published 2004).
# Assays:
# ABA 8′-hydroxylase [1] = settings: microsomal enzyme, BMS corn suspension cells; cited from earlier work
# ABA 8′-hydroxylase [2] = settings: cited from earlier work; for inhibition of induction of ABA 8′-hydroxylase: corn suspension cells
# pJK6-29 mRNA = format: cell-based, corn
# Procedure: Total RNA isolated from non-ABA-induced and ABA-induced (9 hr at […] (+)-ABA) BMS corn suspension was probed with radiolabeled pJK6-29. […] Further Northern blot analysis was carried out. In this experiment, the time course of gene expression was compared with the appearance of ABA 8'-hydroxylase activity. ABA 8'-hydroxylase activity was determined by in vitro assay (see Krochko J. E., et al., 1998, Plant Physiol 118: 849-860) with isolated microsomes isolated from BMS corn suspension cells at defined periods after the addition of 200 μM (+)-ABA. Enzyme activity was assayed at 0 (control), 3, 6, 9, 12, 16, 20.5, 25.5 and 28.5 hours after the addition of (+)-ABA. Total RNA was extracted from duplicate tissue samples and expression of the P450 clone, pJK6-29, was determined by Northern blot analysis. The time-course of mRNA induction for pJK6-29 is consistent with the appearance of ABA 8'-hydroxylase activity (FIG. 5).
# CYP72A7 = assay: biotransformation of (+)-ABA by yeast expressing CYP72A7, LC/MS/MS of culture media; format: cell-based, Arabidopsis thaliana
# Procedure: FIG. 6. Heterologous expression of an Arabidopsis P450 ABA 7′-hydroxylase activity in yeast. The CYP72A7 cDNA from Arabidopsis thaliana was inserted into the pYeDP60 vector, transformed into the WAT11 yeast strain (but not the WAT21 yeast strain) and analyzed for the ability to metabolize (+)-ABA. The biotransformation of (+)-ABA to 7′-hydroxyABA was assessed by High Performance Liquid Chromatography—Mass Spectrometry. (HPLC/MS/MS) 7′-hydroxyABA was excreted into the media. Measured activity was limited by access of enzyme to the substrate (ABA).
# For yeast expression, the cDNAs were transferred into the expression vector pYeDP60 (Pompon D., et al., 1996, Method Enzymol 272: 51-64), and purified recombinant plasmid was subsequently transformed into WAT 11 and WAT 21 yeast strains over-expressing the Arabidopsis cytochrome P450 reductases, CTR1 and CTR2, respectively (Pompon et al., ibid). […]
# For expression analysis the cultures were grown for two days on SC minus URA agar plates at 30° C. […] One to 10 mls of the sample was loaded onto an Oasis HLB column (Waters) to purify ABA and ABA-metabolites and the resulting eluant was analyzed by LC/MS/MS.
Molecule,inhibition of ABA 8′-hydroxylase (ABA 8′-hydroxylase [1]),inhibition of induction of ABA 8′-hydroxylase (ABA 8′-hydroxylase [2]),also measured
[C-]#[O+] [CO],inhibited,,
Clc1ccc(N2N=N[C@@H]3[C@@H]4C[C@@H]([C@H]5N=N[C@@H]45)[C@@H]32)cc1 [tetcyclacis],inhibited,,
Nc1ncnc2c1ncn2[C@@H]1O[C@H](CO)C[C@H]1O [cordecypin],,inhibited,
oxidized cytochrome c: inhibitor of ABA 8′-hydroxylase,inhibited,,
C[C@@H]1C[C@@H]([C@H](O)CC2CC(=O)NC(=O)C2)C(=O)[C@@H](C)C1 [cycloheximide],,inhibited,
"CC1=CC(=O)CC(C)(C)[C@@]1(O)/C=C/C(C)=C\C(=O)O [(+)-ABA, S-(+)-abscisic acid]",,,"time of peak ABA 8′-hydroxylase activity after addition of (+)-ABA (ABA 8′-hydroxylase [2]; BMS corn suspension culture medium): 16 h; induction of ABA 8′-hydroxylase (ABA 8′-hydroxylase [2]; maize BMS suspension cultured cells): induced; regulation of pJK6-29 P450 mRNA expression (pJK6-29 mRNA): upregulated; ABA hydroxylase activity (CYP72A7; WAT21 yeast strain): did not support any ABA hydroxylase activity; ABA 7′-hydroxylase activity (conversion to 7′-hydroxyABA) (CYP72A7; pYeDP60.Ath30-2 in WAT11 yeast strain, (+)-ABA 20 μM to 50 μM, 24 hours): ABA 7′-hydroxylase activity was demonstrated"
